Assay results reported in patent US8012987B2, “Indolo[2,1-b] quinazole-6,12-dione antimalarial compounds and methods of treating malaria therewith” (The United States of America as represented by the …, priority 1998, dated 2011).
Converted amounts (≈) assume the structure as drawn. Like-named read-outs stand apart in the source and are kept apart here.

Key:
[1] = system: Plasmodium falciparum clone CDC Sierra Leone I (D-6); assay: In vitro inhibition of [3H]hypoxanthine uptake, P. falciparum D-6 clone; type: cell-based; details: Plasmodium falciparum, read-out: IC50 (D-6)
Description: (§1) The in vitro assays were conducted by using a modification of the semiautomated microdilution technique of Desjardins et al.^11 and Chulay et al.^12 Two strains of Plasmodium falciparum clones, from CDC Indochina III (W-2), CDC Sierra Leone I (D-6). […] These solutions were subsequently serially diluted 2-fold with a Biomek 1000® (Beckman, Fullerton, Calif.) over 11 different concentrations. The parasites were exposed to serial dilutions of each compound for 48 h and incubated at 37° C. with 5% O2, 5% CO2, and 90% N2 prior to the addition of [^3H]hypoxanthine. […] Uptake of [^3H]hypoxanthine was measured with a Packard Topcount scintillation counter. […] The values without parentheses indicate culture in blood serum which more closely resemble conditions in a living animal.
(§2) The numbers associated with both W2 and D6 refer to IC50 values and the units are ng/ml.

[2] = system: Plasmodium falciparum clone CDC Indochina III (W-2); assay: In vitro inhibition of [3H]hypoxanthine uptake, P. falciparum W-2 clone; type: cell-based; details: Plasmodium falciparum, read-out: IC50 (W-2)
Description: as §1, §2

[3] = values in parentheses: culture medium with 10% Albumax I

CCOC(=O)C(O)(C(=O)OCC)C1c2cc(F)ccc2-n2c1nc1c(OC)cccc1c2=O (centres unmarked) [Example 76]
IC50 [1, 3]: 0.224 µg/mL (≈ 0.49 µM)
IC50 [2, 3]: 0.16 µg/mL (≈ 0.35 µM)

O=C1c2cc(C(O)(C(F)(F)F)C(F)(F)F)ccc2-n2c1nc1ccncc1c2=O [Example 84]
IC50 [1, 3]: 1.71 µg/mL (≈ 4.12 µM)
IC50 [2, 3]: 0.938 µg/mL (≈ 2.26 µM)

CCN(CCN(C)C)c1ccc2c(=O)n3c(nc2c1)C(=O)c1cc(Cl)ccc1-3 [Example 49]
IC50 [1, 3]: 0.0739 µg/mL (≈ 0.186 µM)
IC50 [2, 3]: 0.0747 µg/mL (≈ 0.188 µM)

O=c1c2ccccc2nc2oc3ccccc3n12 [Example 3]
IC50 [1, 3]: > 50 µg/mL
IC50 [2, 3]: > 50 µg/mL

O=C1c2ccccc2-n2c1nc1ccc(Br)cc1c2=O [Example 7]
IC50 [1, 3]: 0.577 µg/mL (≈ 1.76 µM)
IC50 [2, 3]: 0.513 µg/mL (≈ 1.57 µM)

Cc1ccc(S(=O)(=O)N/N=C2/c3ccccc3-n3c2nc2ccccc2c3=O)cc1 [Example 25]
IC50 [1, 3]: 1.84 µg/mL (≈ 4.42 µM)
IC50 [2, 3]: 1.99 µg/mL (≈ 4.78 µM)

CCOC(=O)c1nc2ccccc2c(=O)n1-c1ccccc1 [Example 53]
IC50 [1, 3]: 9.01 µg/mL (≈ 30.6 µM)
IC50 [2, 3]: 4.87 µg/mL (≈ 16.6 µM)

CC1CN(c2cc3nc4n(c(=O)c3cc2F)-c2ccc(I)cc2C4=O)CCN1C(=O)OC(C)(C)C (centres unmarked) [Example 34]
IC50 [1, 3]: 0.588 µg/mL (≈ 0.996 µM)
IC50 [2, 3]: 0.601 µg/mL (≈ 1.02 µM)

CC(C)(C)OC(=O)N1CCN(c2cc3nc4n(c(=O)c3cc2F)-c2ccc(I)cc2C4=O)CC1 [Example 31]
IC50 [1, 3]: 0.161 µg/mL (≈ 0.279 µM)
IC50 [2, 3]: 0.134 µg/mL (≈ 0.233 µM)

CN(CC(=O)O)c1ccc2c(=O)n3c(nc2c1)C(=O)c1cc(Cl)ccc1-3 [Example 60]
IC50 [1, 3]: 0.0781 µg/mL (≈ 0.211 µM)
IC50 [2, 3]: 0.0679 µg/mL (≈ 0.184 µM)

NC(=O)N/N=C1/c2ccccc2-n2c1nc1ccccc1c2=O [Example 37]
IC50 [1, 3]: 3.78 µg/mL (≈ 12.4 µM)
IC50 [2, 3]: 3.48 µg/mL (≈ 11.4 µM)

O=C1c2c(Cl)cccc2-n2c1nc1ccccc1c2=O [Example 9]
IC50 [1, 3]: 0.471 µg/mL (≈ 1.67 µM)
IC50 [2, 3]: 0.403 µg/mL (≈ 1.43 µM)

Cc1ccc2nc3n(c(=O)c2c1)-c1ccccc1C3=O [Example 5]
IC50 [1, 3]: 0.313 µg/mL (≈ 1.19 µM)
IC50 [2, 3]: 0.264 µg/mL (≈ 1.01 µM)

COCc1ccc2c(c1)C(=O)c1nc3ccncc3c(=O)n1-2 [Example 62]
IC50 [1, 3]: 0.0313 µg/mL (≈ 0.107 µM)
IC50 [2, 3]: 0.016 µg/mL (≈ 0.0546 µM)

COCCOC(c1ccc2c(c1)C(=O)c1nc3ccncc3c(=O)n1-2)C(C)C (centres unmarked) [Example 85]
IC50 [1, 3]: 0.136 µg/mL (≈ 0.358 µM)
IC50 [2, 3]: 0.105 µg/mL (≈ 0.278 µM)

O=C1c2cc(I)ccc2-n2c1nc1c(O)nc(O)nc1c2=O [Example 32]
IC50 [1, 3]: 3.85 µg/mL (≈ 9.43 µM)
IC50 [2, 3]: 2.59 µg/mL (≈ 6.34 µM)

CCCCCCCCc1ccc2nc3n(c(=O)c2c1)-c1ccc(Cl)cc1C3=O [Example 44]
IC50 [1, 3]: 6.92 µg/mL (≈ 17.5 µM)
IC50 [2, 3]: 5.86 µg/mL (≈ 14.8 µM)

O=C1c2ccccc2-n2c1nc1c(Br)cc(Br)c(Cl)c1c2=O [Example 38]
IC50 [1, 3]: 0.242 µg/mL (≈ 0.549 µM)
IC50 [2, 3]: 0.203 µg/mL (≈ 0.461 µM)

O=C1c2ccccc2-n2c1nc1c(Br)cc(Br)c(F)c1c2=O [Example 33]
IC50 [1, 3]: 0.0671 µg/mL (≈ 0.158 µM)
IC50 [2, 3]: 0.0796 µg/mL (≈ 0.188 µM)

Cc1ncc2c(=O)n3c(nc2n1)C(=O)c1ccccc1-3 [Example 56]
IC50 [1, 3]: 0.216 µg/mL (≈ 0.817 µM)
IC50 [2, 3]: 0.117 µg/mL (≈ 0.443 µM)

CCCCCCCCc1ccc2c(c1)C(=O)c1nc3ccncc3c(=O)n1-2 [Example 41]
IC50 [1, 3]: 0.0123 µg/mL (≈ 0.0341 µM)
IC50 [2, 3]: 0.00766 µg/mL (≈ 0.0212 µM)

CCOC(=O)C(O)(C(=O)OCC)C1c2ccccc2-n2c1nc1ccccc1c2=O (centres unmarked) [Example 65]
IC50 [1, 3]: 0.259 µg/mL (≈ 0.634 µM)
IC50 [2, 3]: 0.154 µg/mL (≈ 0.377 µM)

CN(CCO)c1ccc2c(=O)n3c(nc2c1)C(=O)c1cc(OC(F)(F)F)ccc1-3 [Example 79]
IC50 [1, 3]: 0.07 µg/mL (≈ 0.173 µM)
IC50 [2, 3]: 0.0688 µg/mL (≈ 0.17 µM)

O=C1c2ccccc2-n2c1nc1nccnc1c2=O [Example 30]
IC50 [1, 3]: 0.5 µg/mL (≈ 2 µM)
IC50 [2, 3]: 0.354 µg/mL (≈ 1.42 µM)

CN1CCN(c2ccc3c(c2)-n2c(nc4ccccc4c2=O)C3=O)CC1 [Example 16]
IC50 [1, 3]: 2.16 µg/mL (≈ 6.24 µM)
IC50 [2, 3]: 1.01 µg/mL (≈ 2.93 µM)

CN1CCN(c2cc3c(cc2F)C(=O)c2nc4ccccc4c(=O)n2-3)CC1 [Example 18]
IC50 [1, 3]: 0.813 µg/mL (≈ 2.23 µM)
IC50 [2, 3]: 0.513 µg/mL (≈ 1.41 µM)

CC1(C)COC(c2ccc3c(c2)C(=O)c2nc4ccncc4c(=O)n2-3)OC1 [Example 81]
IC50 [1, 3]: 0.11 µg/mL (≈ 0.303 µM)
IC50 [2, 3]: 0.0739 µg/mL (≈ 0.203 µM)

Cc1cc(C)c2nc3n(c(=O)c2c1)-c1ccc(F)cc1C3=O [Example 10]
IC50 [1, 3]: 0.138 µg/mL (≈ 0.469 µM)
IC50 [2, 3]: 0.131 µg/mL (≈ 0.445 µM)

CC(C)(C)OC(=O)N/N=C1/c2ccccc2-n2c1nc1ccccc1c2=O [Example 36]
IC50 [1, 3]: 4.2 µg/mL (≈ 11.6 µM)
IC50 [2, 3]: 4.82 µg/mL (≈ 13.3 µM)

O=C1/C(=c2\c3ccccc3n3c(=O)c4ccccc4nc23)Nc2ccccc21 [Example 51]
IC50 [1]: 8.69 µg/mL (≈ 23.9 µM)
IC50 [2]: 8.76 µg/mL (≈ 24.1 µM)

O=C1c2ccccc2-n2c1nc1ccccc1c2=O [Example 1]
IC50 [1, 3]: 0.069 µg/mL (≈ 0.278 µM)
IC50 [2, 3]: 0.069 µg/mL (≈ 0.278 µM)

CC1CN(c2cc3nc4n(c(=O)c3cc2F)-c2ccc(I)cc2C4=O)CCN1 (centres unmarked) [Example 35]
IC50 [1, 3]: 0.103 µg/mL (≈ 0.211 µM)
IC50 [2, 3]: 0.134 µg/mL (≈ 0.273 µM)

CN1CCN(/N=C\c2ccc3c(c2)C(=O)c2nc4ccncc4c(=O)n2-3)CC1 [Example 66]
IC50 [1, 3]: 0.517 µg/mL (≈ 1.38 µM)
IC50 [2, 3]: 0.449 µg/mL (≈ 1.2 µM)

O=c1c2ccccc2nc2/c(=C/C=C/c3ccccc3)c3ccccc3n12 [Example 67]
IC50 [1, 3]: 4.44 µg/mL (≈ 12.7 µM)
IC50 [2, 3]: 4.42 µg/mL (≈ 12.7 µM)

Cc1ccc2c(c1)C(=O)c1nc3ccncc3c(=O)n1-2 [Example 82]
IC50 [1, 3]: 0.0628 µg/mL (≈ 0.239 µM)
IC50 [2, 3]: 0.124 µg/mL (≈ 0.471 µM)

Cc1cccc2c(=O)n3c(nc12)C(=O)c1ccccc1-3 [Example 6]
IC50 [1, 3]: 0.527 µg/mL (≈ 2.01 µM)
IC50 [2, 3]: 0.503 µg/mL (≈ 1.92 µM)

CCOC(=O)c1ccc2c(c1)C(=O)c1nc3ccc(I)cc3c(=O)n1-2 [Example 26]
IC50 [1, 3]: 0.589 µg/mL (≈ 1.32 µM)
IC50 [2, 3]: 0.609 µg/mL (≈ 1.37 µM)

O=C1c2cc(I)ccc2-n2c1nc1c(Br)cc(Br)cc1c2=O [Example 29]
IC50 [1, 3]: 0.149 µg/mL (≈ 0.281 µM)
IC50 [2, 3]: 0.131 µg/mL (≈ 0.245 µM)

CN1CCN(c2cc3c(cc2F)C(=O)c2nc4cc(F)ccc4c(=O)n2-3)CC1 [Example 20]
IC50 [1, 3]: 1.05 µg/mL (≈ 2.76 µM)
IC50 [2, 3]: 0.734 µg/mL (≈ 1.92 µM)

O=C(N/N=C1\c2ccccc2-n2c1nc1ccccc1c2=O)c1ccncc1 [Example 43]
IC50 [1, 3]: 38.2 µg/mL (≈ 104 µM)
IC50 [2, 3]: 23 µg/mL (≈ 62.6 µM)

Cc1cccc2c(=O)n3c(nc12)C(=O)c1cc(F)ccc1-3 [Example 14]
IC50 [1, 3]: 0.0102 µg/mL (≈ 0.0363 µM)
IC50 [2, 3]: 0.00576 µg/mL (≈ 0.0206 µM)

O=C1c2cc(Cl)ccc2-n2c1nc1ncncc1c2=O [Example 50]
IC50 [1, 3]: 0.0442 µg/mL (≈ 0.155 µM)
IC50 [2, 3]: 0.0112 µg/mL (≈ 0.0392 µM)

Nc1ccc2nc3n(c(=O)c2c1)-c1ccc(F)cc1C3=O [Example 8]
IC50 [1, 3]: 0.062 µg/mL (≈ 0.22 µM)
IC50 [2, 3]: 0.062 µg/mL (≈ 0.22 µM)

O=C1c2ccc(Cl)cc2-n2c1nc1ncccc1c2=O [Example 22]
IC50 [1, 3]: 0.278 µg/mL (≈ 0.979 µM)
IC50 [2, 3]: 0.263 µg/mL (≈ 0.927 µM)

O=C1c2ccccc2-n2c1nc1ccncc1c2=O [Example 52]
IC50 [1, 3]: 0.0733 µg/mL (≈ 0.294 µM)
IC50 [2, 3]: 0.0647 µg/mL (≈ 0.26 µM)

O=C1c2cc(/C=N/N3CCCCC3)ccc2-n2c1nc1ccncc1c2=O [Example 89]
IC50 [1, 3]: 0.112 µg/mL (≈ 0.311 µM)
IC50 [2, 3]: 0.0688 µg/mL (≈ 0.191 µM)
